Assay results published in US10858360B2, “Tricyclic gyrase inhibitors” (priority 2011, dated 2020).
Values after ≈ are worked out from the molar mass of the structure shown. Read-outs that look alike come from different tables or passages of the source.

Columns and labels:
[1] = tested on: S. aureus ATCC 13709; assay: MIC, S. aureus ATCC 13709 (Alamar Blue broth microdilution); format: cell-based; details: for MIC: Staphylococcus aureus, ATCC13709, S. aureus
[2] = tested on: E. coli ATCC 25922; assay: MIC, E. coli ATCC 25922; format: cell-based; details: for MIC: Escherichia coli, ATCC25922, E. coli
[3] = Alamar Blue read after overnight incubation at 35° C.
[4] = S. aureus, Alamar Blue read after overnight incubation at 35° C.
[5] = E. coli, Alamar Blue read after overnight incubation at 35° C.

SMILES	MIC [1, 3] [µg/mL]	MIC [2, 3] [µg/mL]	also measured
CNc1cc(F)cc2c1[nH]c1nc(Oc3cnc(C)nc3)nc(N3CCC(N)C(C)(C)C3)c12 (centres unmarked) [4.152]	≤ 0.5	1 (≈ 2.22 µM)	–
CNc1c(F)ccc2c1[nH]c1nc(Oc3cnc(C)nc3)nc(N3CC[C@@H](N)C3)c12 [6.01]	≤ 0.5	1 (≈ 2.45 µM)	–
NC1CN(c2nc(Sc3cnc4ccc[n+]([O-])c4c3)nc3[nH]c4c(NC5CC5)cc(F)cc4c23)CC12CC2 (centres unmarked) [1.2]	32 (≈ 60.5 µM)	> 64	–
CNc1cc(F)cc2c1[nH]c1nc(Sc3cnc4ccc[n+]([O-])c4c3)nc(N3CC4C(N)C4C3)c12 (centres unmarked) [1.50]	≤ 0.5	≤ 0.5	–
CNc1cc(F)cc2c1[nH]c1nc(Oc3cnc4cccnc4c3)nc(N3CC4C[C@@H](N)C[C@H]4C3)c12 (some centres unmarked) [4.046]	≤ 0.5	1 (≈ 2.06 µM)	–
CNc1cc(F)cc2c1[nH]c1nc(Oc3cncnc3)nc(N3CC4CC(N)C4C3)c12 (centres unmarked) [4.026]	≤ 0.5	≤ 0.5	–
CNc1cc(F)cc2c1[nH]c1nc(Oc3cnc4[nH]cnc4c3)nc(N3CC4CCNC4C3)c12 (centres unmarked) [4.312]	16 (≈ 34.8 µM)	> 16	–
CNc1cc(F)cc2c1[nH]c1nc(Oc3cnc(C(C)(C)C)nc3)nc(N3CCC4CNC4C3)c12 (centres unmarked) [4.317]	≤ 0.5	2 (≈ 4.2 µM)	–
CNc1cc(F)cc2c1[nH]c1nc(Oc3cnc(Cl)nc3)nc(N3CC4CC(N)C4C3)c12 (centres unmarked) [4.378]	–	–	MIC Sa [1, 4]: ≤0.5 µg/mL; MIC Ec [2, 5]: ≤0.5 µg/mL
CNc1cccc2c1[nH]c1nc(Sc3cncc(S(=O)(=O)N(C)C)c3)nc(N3CC4C(N)C4C3)c12 (centres unmarked) [1.22]	1 (≈ 1.96 µM)	8 (≈ 15.7 µM)	–
CNc1cc(F)cc2c1[nH]c1nc(Oc3cnc(C)nc3)nc(N3CC(N)C(C(=O)NCC(C)O)C3)c12 (centres unmarked) [4.439]	8 (≈ 15.7 µM)	> 16	–
Cc1ncc(Oc2nc(N3C[C@H](N)C4(CC4)C3)c3c(n2)[nH]c2c(N(C)C(=O)CN)cc(F)cc23)cn1 [4.426]	8 (≈ 16.3 µM)	> 16	–
CNc1cc(C)cc2c1[nH]c1nc(Oc3cncnc3)nc(N3CC4C(N)C4C3)c12 (centres unmarked) [6.27]	–	–	MIC Sa [1]: ≤0.5 µg/mL; MIC Ec [2]: 1 µg/mL (≈ 2.48 µM)
CNc1cccc2c1[nH]c1nc(Sc3cnc4cccnc4c3)nc(N3C[C@H](N)C[C@@H]3CO)c12 [1.68]	16 (≈ 33.9 µM)	32 (≈ 67.7 µM)	–
COc1cccc2c1[nH]c1nc(Oc3cnc4cccnc4c3)nc(N3CC4C(N)C4C3)c12 (centres unmarked) [2.14]	–	–	MIC Sa [1, 4]: 1 µg/mL (≈ 2.28 µM); MIC Ec [2, 5]: >64 µg/mL
CNc1cc(F)cc2c1[nH]c1nc(Oc3cncnc3)nc(N3CC[C@]4(C[C@@H]4N)C3)c12 [4.013]	≤ 0.5	≤ 0.5	–
Nc1cccc2c1[nH]c1nc(Oc3cnc4cccnc4c3)nc(N3CC4C(N)C4C3)c12 (centres unmarked) [2.8]	–	–	MIC Sa [1, 4]: 16 µg/mL (≈ 37.7 µM); MIC Ec [2, 5]: >64 µg/mL
CNc1cccc2c1[nH]c1nc(Sc3cnc4cccnc4c3)nc(N3CC4CNC(C4)C3)c12 (centres unmarked) [1.47]	≤ 0.5	2 (≈ 4.27 µM)	–
CNc1cc(F)cc2c1[nH]c1nc(Oc3ccc4nc5n(c(=O)c4c3)CCC5)nc(N3CC4(CCC4N)C3)c12 (centres unmarked) [4.377]	–	–	MIC Sa [1, 4]: 4 µg/mL (≈ 7.6 µM); MIC Ec [2, 5]: 16 µg/mL (≈ 30.4 µM)
CNc1cccc2c1[nH]c1nc(Oc3cncnc3)nc(N3CCC(N)CC3)c12 [3.64]	16 (≈ 41 µM)	64 (≈ 164 µM)	–

SMILES	MIC [1, 3] [µg/mL]	MIC [2, 3] [µg/mL]	also measured
CNc1cc(F)cc2c1[nH]c1nc(Oc3cnc4c(c3)ncn4C3CC3)nc(N3CC4C[C@@H](N)C4C3)c12 (some centres unmarked) [4.363]	≤ 0.5	1 (≈ 2 µM)	–
CNc1cccc2c1[nH]c1nc(Sc3cnc4ccc[n+]([O-])c4c3)nc(N3CC[C@H](N)C3)c12 [1.14]	≤ 0.5	1 (≈ 2.18 µM)	–
CNc1cc(F)cc2c1[nH]c1nc(Oc3cncnc3)nc(N3C[C@H](N)C4(CC4)C3)c12 [4.011]	≤ 0.5	≤ 0.5	–
CNc1cccc2c1[nH]c1nc(Oc3cnc(C)nc3)nc(N3C[C@H](N)C4(CC4)C3)c12 [3.49]	≤ 0.5	≤ 0.5	–
CNc1cccc2c1[nH]c1nc(Sc3cnc4cccnc4c3)nc(N3CCC(C)(N)C3)c12 (centres unmarked) [1.59]	1 (≈ 2.19 µM)	4 (≈ 8.76 µM)	–
CNc1cc(F)cc2c1[nH]c1nc(Oc3cncc(OC)c3)nc(N3CC4C(N)C4C3)c12 (centres unmarked) [4.164]	≤ 0.5	1 (≈ 2.3 µM)	–
CNc1cccc2c1[nH]c1nc(Sc3cnc4ccc[n+]([O-])c4c3)nc(N3CC4C(N)C4C3)c12 (centres unmarked) [1.66]	–	–	MIC Sa [1, 4]: ≤0.13 µg/mL; MIC Ec [2, 5]: ≤0.5 µg/mL
CNc1cc(F)cc2c1[nH]c1nc(Oc3ccc4c(c3)C(=O)NCC4)nc(N3CC4C(N)C4C3)c12 (centres unmarked) [4.301]	–	–	MIC Sa [1, 4]: ≤0.5 µg/mL; MIC Ec [2, 5]: 1 µg/mL (≈ 2.11 µM)
CNc1cccc2c1[nH]c1nc(Oc3cncc(C#N)c3)nc(N3CC4C(N)C4C3)c12 (centres unmarked) [3.27]	1 (≈ 2.42 µM)	4 (≈ 9.7 µM)	–
CNc1cc(F)cc2c1[nH]c1nc(Oc3cncc(F)c3)nc(N3CC4CNC(C4)C3)c12 (centres unmarked) [4.058]	≤ 0.5	≤ 0.5	–
CNc1cccc2c1[nH]c1nc(Oc3cncnc3)nc(N3CC4CCC(N)C4C3)c12 (centres unmarked) [3.15]	1 (≈ 2.4 µM)	8 (≈ 19.2 µM)	–
CNc1cc(F)cc2c1[nH]c1nc(Oc3cnc(C)nc3)nc(N3CC4(CCCNC4)C3)c12 [4.149]	–	–	MIC Sa [1, 4]: ≤0.5 µg/mL; MIC Ec [2, 5]: 2 µg/mL (≈ 4.46 µM)
CNc1cc(F)cc2c1[nH]c1nc(Oc3cnc(C(F)(F)F)nc3)nc(N3C[C@@H]4[C@@H](N)[C@@H]4C3)c12 [4.280]	≤ 0.5	≤ 0.5	–
CNc1cc(F)cc2c1[nH]c1nc(Oc3ccc4sc(N)nc4c3)nc(N3C[C@H]4CC[C@@H](N)[C@H]4C3)c12 [4.335]	≤ 0.5	4 (≈ 7.93 µM)	–
CNc1cc(F)cc2c1[nH]c1nc(Oc3cnc(C)nc3)nc(N3CC4CC(N)C3C4)c12 (centres unmarked) [4.148]	≤ 0.5	4 (≈ 9.21 µM)	–
CNc1cc(F)cc2c1[nH]c1nc(Oc3cncnc3)nc(N3C[C@@H]4[C@H](C3)[C@@]4(N)C(N)=O)c12 [4.009]	≤ 0.5	> 64	–
CNc1cc(F)cc2c1[nH]c1nc(Oc3cncc(F)c3)nc(N3CC4CC(N)C4C3)c12 (centres unmarked) [4.060]	–	–	MIC Sa [1, 4]: ≤0.5 µg/mL; MIC Ec [2, 5]: ≤0.5 µg/mL
CNc1cc(F)cc2c1[nH]c1nc(Oc3cnc(N)nc3)nc(N3CC4CC4(CN)C3)c12 (centres unmarked) [4.185]	≤ 0.5	8 (≈ 18.4 µM)	–
CNc1cc(F)cc2c1[nH]c1nc(Oc3cnc(N)nc3)nc(N3C4CCC3CC(N)C4)c12 (centres unmarked) [4.183]	1 (≈ 2.22 µM)	8 (≈ 17.8 µM)	–
CNc1cccc2c1[nH]c1nc(Oc3ccc[n+]([O-])c3)nc(N3CC4C(N)C4C3)c12 (centres unmarked) [3.30]	16 (≈ 39.7 µM)	16 (≈ 39.7 µM)	–
